According to patent publication US10918108B2, “Synergistic herbicidal composition” (JIANGSU ROTAM CHEMISTRY CO., LTD, priority 2016, dated 2021):

System: gramineous weeds, broadleaf weeds and sedge weeds
Experiment: Weed control efficacy, greenhouse pot test, survival rate compared with Colby value (Table 1)
Assay type: in vivo
Excerpt: The desired efficacy of the combination of three active compounds can be calculated through “Colby formula” as follows (S. R. Colby, “Calculating Synergistic and Antagonistic Responses of Herbicide Combinations, Weeds 1967, 15, 20-22): if
A is the activity of active compound A when used in an amount of mg/ha or concentrate of mppm, expressed as a percentage of untreated control;
B is the activity of active compound B when used in an amount of ng/ha or concentrate of nppm, expressed as a percentage of untreated control;
C is the activity of active compound C when used in an amount of hg/ha or concentrate of hppm, expressed as a percentage of untreated control;
E0 is the anticipated activity of active compounds A, B and C when used in an amount of m, n, h g/ha or concentrate of m, n, h ppm, E0=A×B×C/(100^(N-1)) N=3;
If the observed actual activity E is greater than the anticipated activity (E0), then the composition has synergistic effect.
If the observed actual efficiency of weed control (E) through the biology test is greater than the anticipated value (E0) as calculated via Colby's equation, then it represents that the efficacy of herbicidal composition is greater than the sum of efficacy of each component, which means the composition has synergistic effect.
Use stem and leaf treatment for potted grown plant(NY/T 1155.4-2006): fill a plastic pot (6 cm height, 9 cm diameter) with a quantity of soil and sow 15 to 20 seeds of monocotyledonous weeds and dicotyledonous weeds in the plastic pot, cover it with 0.5 to 1 cm thick of fine soil and then put it in greenhouse for cultivation. When weeds grow to the 2 to 4 leave stage, conduct the stem and leaf spray treatment with 1 mL herbicidal solution on each pot and repeat four times for each treatment and leave some pots untreated as control group. Keep the treated pots in a greenhouse for cultivation and observe the growing status of target weeds periodically. Conduct the visual test on the target weeds regarding the damage symptoms and growth inhibition effect after 21 days. Weigh up the fresh weight above the ground or plant fresh weight and evaluate the toxicity of the herbicidal formulation on target weeds based on the fresh weight inhibition rate of the target.
Prepare the following formulations according to specific weight percentages: 1. Pyroxasulfone; 2. Mesotrione; 3 Atrazine; 4. Pyroxasulfone+Mesotrione; 5. Pyroxasulfone+Atrazine; 6. Mesotrione+Atrazine; 7. Pyroxasulfone+Mesotrione+Atrazine. After that, dilute above formulations with water to obtain diluted formulations.
Conduct visual assessment the damage symptom and growth inhibition status of target weeds after 21 days. Weigh up the fresh weight above the ground and calculate the inhibition rate of fresh weight (%).
Anticipated effects of the special combined three active components can be calculated through so called “Colby formula”. If the actual efficiency of weed control observed during the biology test exceeds the anticipated value […] calculated by Colby's formula, then it represents that the efficacy of herbicidal composition is greater than the sum of efficacy of each component, which means the composition has synergistic effect.
The synergistic herbicidal composition of present invention has conducted test on the following important harmful plants (gramineous weeds, broadleaf weeds, sedge weeds) with wide herbicidal spectrum: Echinochloa oryzicola, Digitaria spp., Stellaria media, Amaranthus retroflexus, Fallopia(ex Polygonum) Convolvulus, Abuthilon theophrasti, Sagittariatrifolia, Oriental Waterplantain Rhizome, Herb of Pygmy Arrowhead, Monochoria korsakowii, Lindernia procumbens, Solanum nigrum L., Scirpus juncoides Roxb, Cyperus difformis L., Chenopodium alum L., Avena fatua L. and Galium aparine L. var. tenerum Gren. et (Godr.) Rebb.

| Compound | Actual survival rate (%) (application rate 1 g/ha) | Actual survival rate (%) (application rate 50 g/ha) | Actual survival rate (%) (application rate 100 g/ha) | Actual survival rate (%) (application rate 5 g/ha) | Actual survival rate (%) (application rate 10 g/ha) | Actual survival rate (%) (application rate 25 g/ha) |
| --- | --- | --- | --- | --- | --- | --- |
| CCNc1nc(Cl)nc(NC(C)C)n1 [Atrazine, 2-chloro-4-ethylamino-6-isopropylamino-1,3,5-triazine] | 100 | 100 | 67 |  |  |  |
| Cn1nc(C(F)(F)F)c(CS(=O)(=O)C2=NOC(C)(C)C2)c1OC(F)F [Pyroxasulfone, 3-[5-(difluoromethoxy)-1-methyl-3-(trifluoromethyl)pyrazol-4-ylmethylsulfonyl]-4,5-dihydro-5,5-dimethyl-1,2-oxazole] | 89 |  |  | 78 | 60 |  |
| CS(=O)(=O)c1ccc(C(=O)C2C(=O)CCCC2=O)c([N+](=O)[O-])c1 [Mesotrione, 2-(4-mesyl-2-nitrobenzoyl)cyclohexane-1,3-dione] | 100 | 74 |  |  |  | 87 |
